Experimental data published in patent US11034661B2, “Substituted N′-hydroxycarbamimidoyl-1,2,5-oxadiazole compounds as indoleamine 2,3-dioxygenase IDO inhibitors” (Merck Sharp & Dohme Corp., priority 2017, dated 2021).

Columns and labels:
[1] = biological target: IDO1 in human whole blood stimulated with LPS and IFNγ (Homo sapiens (Human), UniProt P14902); experiment: IDO1 Human Whole Blood Assay; assay type: cell-based; conditions: LPS and IFNγ 100 ng/mL, 18 h, kynurenine by LC/MS/MS
Method: IDO1 Human Whole Blood Assay
Compounds to be tested were serially diluted in ten 3-fold steps in DMSO starting from 10 mM. 3 μL of compound dilutions or DMSO alone were then dispensed from the dilution plate into a polypropylene 96-well assay plate containing 97 μL of RPMI using an Echo 555 acoustic liquid handler (Labcyte). LPS and IFNγ was prepared in RPMI to a 10× of final conc. (1000 ng/mL), final concentration is 100 ng/mL.
Human whole blood was drawn in sodium heparin coated tubes from healthy internal donors. Two hundred forty μL of blood was transferred to each of the wells of a v-bottom 96 well plate. Thirty μL of compound was transferred from intermediate dilution plate, and incubated for 15 min. Thirty μL from stimulants was then transferred to blood and mixed thoroughly. Plate was covered with breathable membrane and incubated at 37° C. for overnight (18 h).
On day 2 isotope labeled standard of kynurenine and tryptophan was made in water at 10× concentration and 30 μL was added to the blood at 3 μM final concentration. The assay plates were centrifuged at 300×G for 10 min with no brake to separate plasma from red blood cells. Sixty μL of plasma samples was removed without disturbing red blood cells. Plasma was diluted with RPMI in 1:1 ratio and proteins were precipitated out with two volume of Acetonitrile. The plates was centrifuged at 4000×G for 60 min. Twenty μL of supernatant was carefully transferred to a 384 well plate contain 40 μL of 0.1% formic acid in water and analyzed by LC/MS/MS.
LC/MS/MS analyses were performed using Thermo Fisher's LX4-TSQ Quantum Ultra system. This system consists of four Agilent binary high-performance liquid chromatography (HPLC) pumps and a TSQ Quantum Ultra triple quadruple MS/MS instrument. For each sample, 5 μL were injected onto an Atlantis T3 column (2.1 mm×150 mm, 3 μm particle size) from Waters. The mobile phase gradient pumped at 0.8 mL/min was used to elute the analytes from the column at 25° C. The elution started at 0% B increasing linearly to 25% B at 6.5 min, holding at 25% for 1 min, re-equilibrating to 10 min. Mobile phase A consisted of 0.1% formic acid in water. Mobile phase B consisted of 0.1% of formic acid in acetonitrile. Data was acquired in positive mode using a HESI interface. The operational parameters for the TSQ Quantum Ultra instrument were a spray voltage of 4000 V, capillary temperature of 380° C., vaporizer temperature 400° C., shealth gas 60 arbitrary units, Aux gas 20 arbitrary units, tube lens 85 and collision gas 1.2 mTorr. SRM chromatograms of kynurenine (Q 1: 209.2>Q3:94.0) and internal standard (Q1: 215.3>Q3:98.2) were collected for 90 sec. The peak area was integrated by Xcalibur Quan software. The ratios between the kynurenine generated in the reaction and 2D6-Kynurenine spiked-in internal standard were used to generate percentage inhibition and IC50 values. Compounds were titrated and IC50's were calculated by 4 parameter sigmoidal curve fitting formula.

[2] = biological target: IDO1 in Hela cells stimulated with IFNγ (Homo sapiens (Human), UniProt P14902); experiment: IDO1 Cellular Assay in Hela Cells Stimulated with IFNγ; assay type: cell-based; conditions: IFNγ 100 ng/mL, about 48 hours, fluorescence readout, read-out: IDO1 HELA Cell Assay, IC50
Method: IDO1 Cellular Assay in Hela Cells Stimulated with IFNγ
Hela cells were cultured in complete Hela culture medium (90% EMEM, 10% heat-inactivated fetal bovine serum) and expanded to about 1×10^9 cells. The cells were then collected and frozen down at 10×10^6 cells/vial in 1 mL frozen medium (90% complete Hela culture medium, 10% DMSO)
Compounds to be tested were serially diluted in ten 3-fold steps in DMSO starting from 10 mM DMSO stocks in Echo low volume plate(s). Compound dilutions or DMSO alone were then dispensed from the dilution plate(s) into Greiner black 384-well assay plate(s) (catalog #781086, 50 nL/well) using an Echo 550 acoustic liquid handler (Labcyte).
Frozen Hela cells were thawed and transferred into Hela assay medium (99% complete Hela culture medium, 1% Pen/Strep) with 20 mL medium/vial of cells. The cells were spun down at 250 g in a table top centrifuge for 5 min and suspended in same volume of Hela assay medium. The cells were then counted and adjusted to a density of 2×10^5 cells/ml in Hela assay medium. Sterile L-tryptophan were added to the cells with final concentration of 300 uM L-tryptophan. A small aliquot (2 mL/plate) of Hela cells were set aside and were not treated with IFNγ, to serve as the Max-E control. The rest of Hela cells were added with sterile IFNγ (Cat #285-IF, R & D systems) with a final concentration of 100 ng/mL.
Hela cells with and without IFNγ were dispensed to the respective wells of 384-well assay plates containing the compounds. The plates were incubated for about 48 hours at a 37° C., 5% CO2 incubator. Afterwards, 12 μL of 0.5 M methyl isonipecotate in dimethyl sulfoxide were added into each well and the plates were sealed and incubated at 37° C. without CO2 overnight. The plates were centrifuged for 1 min at 200×g. The resulting fluorescence was measured in a Spectramax plate reader (Molecular Devices) with a 400 nm excitation filter and a 510 nm emission filter.
The fluorescence intensity of each well was corrected for the background observed in wells with non-IFNγ-treated cells and was expressed as a fraction of the intensity observed in wells of IFNγ-treated cells and DMSO only. Potencies were calculated by linear least squares fit to the four parameter logistic IC50 equation.

HIS-tagged IDO1 protein = HIS-tagged IDO1 protein (Homo sapiens (Human), UniProt P14902); experiment: IDO1 Enzyme Assay; assay type: biochemical; conditions: recombinant IDO1 40 nM, tryptophan substrate, fluorescence readout
Method: Biological Assays IDO1 Enzyme Assay
Compounds to be tested were serially diluted in ten 3-fold steps in DMSO starting from 10 mM DMSO stocks. Compound dilutions or DMSO alone were then dispensed from the dilution plate into a Greiner black 384-well assay plate (catalog #781086) using an Echo 555 acoustic liquid handler (Labcyte).
HIS-tagged IDO1 protein was recombinantly expressed in Escherichia coli using ZYP5052 autoinduction media supplemented with 500 μM delta aminolevulinic acid for 48 hours at 16 degrees Celsius. IDO1 protein was purified using Ni^2+-affinity resin and size exclusion chromatography. Purified protein was then diluted in assay buffer (50 mM Tris pH 7.0, 1% glycerol, 20 μM methylene blue, 0.05% Tween-20, 20 mM sodium ascorbate, 100 units/mL catalase to obtain a final IDO1 concentration of 40 nM. IDO1 solution […] or buffer alone […] was dispensed to wells of the assay plate using a BioRAPTR liquid dispenser (Beckman Coulter). Assay plates containing compound and IDO1 enzyme were incubated at room temperature for 30 minutes. Afterwards, 10 μL of 400 μM tryptophan in assay buffer were added to each well of the assay plate using a BioRAPTR liquid dispenser. Plates were incubated at room temperature for 60 minutes and reactions were quenched by addition of 10 μL of 0.5 M methyl isonipecotate in dimethyl sulfoxide. Plates were sealed and incubated at 37 degrees Celsius for 4 hours or 50 degrees Celsius for 2 hours. The plates are allowed to cool and then centrifuged for 1 minute at 1000×g. The resulting fluorescence was measured in an Envision plate reader (Perkin Elmer) with a 400/25 nm excitation filter and an 510/20 nm emission filter.
Potencies were calculated by linear least squares fit to the four parameter logistic IC50 equation.

IDO1 in Hela cells stimulated with IFNγ, sequence (P14902 whole entry): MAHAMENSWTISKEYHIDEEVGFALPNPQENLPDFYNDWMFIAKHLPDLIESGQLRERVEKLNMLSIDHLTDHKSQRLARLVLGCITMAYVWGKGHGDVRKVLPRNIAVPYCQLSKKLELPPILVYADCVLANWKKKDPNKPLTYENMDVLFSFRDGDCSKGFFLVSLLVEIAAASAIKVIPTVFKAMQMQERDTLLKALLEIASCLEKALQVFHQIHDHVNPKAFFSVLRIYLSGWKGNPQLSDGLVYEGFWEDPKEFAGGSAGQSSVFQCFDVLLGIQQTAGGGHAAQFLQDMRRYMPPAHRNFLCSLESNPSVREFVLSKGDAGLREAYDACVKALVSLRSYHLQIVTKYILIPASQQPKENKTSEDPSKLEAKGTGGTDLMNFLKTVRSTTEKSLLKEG
HIS-tagged IDO1 protein, sequence (P14902 whole entry): as above
IDO1 in human whole blood stimulated with LPS and IFNγ, sequence (P14902 whole entry): as above

Row | IDO1 human whole blood assay, IC50 [1] [nM] | IC50 [2] [nM] | IC50 (HIS-tagged IDO1 protein) [nM] | SMILES
1 | 1176 | 88.6 | 72 | C[C@@H](CO)NC(=O)COc1nonc1/C(=N/O)N[C@H]1Cc2ccc(F)cc21 [Example 7, 2-[(4-{N-[(7S)-4-fluorobicyclo[4.2.0]octa-1,3,5-trien-7-yl]-N′-hydroxycarbamimidoyl}-1,2,5-oxadiazol-3-yl)oxy]-N-[(2S)-1-hydroxypropan-2-yl]acetamide]
2 | 387.6 | 40 | 49 | NC(=O)N[C@H]1C[C@@H](Oc2nonc2/C(=N/O)N[C@H]2Cc3ccc(F)cc32)C1 [Example 42, 4-{[cis-3-(carbamoylamino)cyclobutyl]oxy}-N-[(7S)-4-fluorobicyclo[4.2.0]octa-1,3,5-trien-7-yl]-N′-hydroxy-1,2,5-oxadiazole-3-carboximidamide]
3 | 954.9 | 328 | 216 | NC(=O)N[C@H]1C[C@H](Oc2nonc2/C(=N/O)N[C@H]2Cc3ccc(F)cc32)C1 [Example 57, 4-{[trans-3-(carbamoylamino)cyclobutyl]oxy}-N-[(7S)-4-fluorobicyclo[4.2.0]octa-1,3,5-trien-7-yl]-N′-hydroxy-1,2,5-oxadiazole-3-carboximidamide]
4 | 386.1 | 1340 | 1490 | O=C(CO)N[C@H]1C[C@H](Oc2nonc2/C(=N/O)N[C@H]2Cc3ccc(F)cc32)C1 [Example 56, N-{trans-3-[(4-{N-[(7S)-4-fluorobicyclo[4.2.0]octa-1,3,5-trien-7-yl]-N′-hydroxycarbamimidoyl}-1,2,5-oxadiazol-3-yl)oxy]cyclobutyl}-2-hydroxyacetamide]
5 | – | 870 | 289 | NS(=O)(=O)CCOc1nonc1/C(=N/O)N[C@H]1Cc2ccc(F)cc21 [Example 34, N-[(7S)-4-fluorobicyclo[4.2.0]octa-1,3,5-trien-7-yl]-N′-hydroxy-4-(2-sulfamoylethoxy)-1,2,5-oxadiazole-3-carboximidamide]
6 | – | 416 | 110 | C[C@H](CO)NC(=O)COc1nonc1/C(=N/O)N[C@H]1Cc2ccc(F)cc21 [Example 8, 2-[(4-{N-[(7S)-4-fluorobicyclo[4.2.0]octa-1,3,5-trien-7-yl]-N′-hydroxycarbamimidoyl}-1,2,5-oxadiazol-3-yl)oxy]-N-[(2R)-1-hydroxypropan-2-yl]acetamide]
7 | – | 36 | 20 | NC(=O)N1CC(Oc2nonc2/C(=N/O)N[C@H]2Cc3ccc(F)cc32)C1 [Example 63, (S,Z)-3-((4-(N-(4-fluorobicyclo[4.2.0]octa-1(6),2,4-trien-7-yl)-N′-hydroxycarbamimidoyl)-1,2,5-oxadiazol-3-yl)oxy)azetidine-1-carboxamide]
8 | – | 822 | 516 | O=C(CO)N1CCC(Oc2nonc2/C(=N/O)N[C@H]2Cc3ccc(F)cc32)CC1 [Example 50, N-[(7S)-4-fluorobicyclo[4.2.0]octa-1,3,5-trien-7-yl]-N′-hydroxy-4-{[1-(hydroxyacetyl)piperidin-4-yl]oxy}-1,2,5-oxadiazole-3-carboximidamide]
9 | – | 1310 | 866 | O=C(COc1nonc1/C(=N/O)N[C@H]1Cc2ccc(F)cc21)N1CC[C@@H](O)C1 [Example 44, N-[(7S)-4-fluorobicyclo[4.2.0]octa-1,3,5-trien-7-yl]-N′-hydroxy-4-{2-[(3R)-3-hydroxypyrrolidin-1-yl]-2-oxoethoxy}-1,2,5-oxadiazole-3-carboximidamide]
10 | – | 624 | 413 | C[C@H](O)CNC(=O)COc1nonc1/C(=N/O)N[C@H]1Cc2ccc(F)cc21 [Example 9, 2-[(4-{N-[(7S)-4-fluorobicyclo[4.2.0]octa-1,3,5-trien-7-yl]-N′-hydroxycarbamimidoyl}-1,2,5-oxadiazol-3-yl)oxy]-N-[(2S)-2-hydroxypropyl]acetamide]
11 | – | 446 | 334 | CC(=O)NC(CO)COc1nonc1/C(=N/O)N[C@H]1Cc2ccc(F)cc21 (stereo partly drawn) [Example 39, N-{1-[(4-{N-[(7S)-4-fluorobicyclo[4.2.0]octa-1,3,5-trien-7-yl]-N′-hydroxycarbamimidoyl}-1,2,5-oxadiazol-3-yl)oxy]-3-hydroxypropan-2-yl}acetamide]
12 | – | 7310 | 10700 | NS(=O)(=O)N1CCC(Oc2nonc2/C(=N/O)N[C@H]2Cc3ccc(F)cc32)CC1 [Example 49, N-[(7S)-4-fluorobicyclo[4.2.0]octa-1,3,5-trien-7-yl]-N′-hydroxy-4-[(1-sulfamoylpiperidin-4-yl)oxy]-1,2,5-oxadiazole-3-carboximidamide]
13 | – | 301 | 74.7 | NC(=O)NCCCOc1nonc1/C(=N/O)N[C@H]1Cc2ccc(F)cc21 [Example 18, 4-[3-(carbamoylamino)propoxy]-N-[(7S)-4-fluorobicyclo[4.2.0]octa-1,3,5-trien-7-yl]-N′-hydroxy-1,2,5-oxadiazole-3-carboximidamide]
